Test results published in ChEMBL document CHEMBL5608184, “Discovery and mechanistic insights into thieno[3,2-d]pyrimidine and heterocyclic fused pyrimidines inhibitors targeting tubulin for cancer therapy” (Eur J Med Chem, 2024).

Legend:
SK-OV-3 [1] = test: Induction of apoptosis in human SK-OV-3 cells assessed as late apoptotic cells at 5 nM incubated for 48 hrs by Annexin V-APC-A/7-AAD-A staining based flow cytometry (reference value: 1.20 %); type: functional
SK-OV-3 [2] = test: Induction of apoptosis in human SK-OV-3 cells assessed as late apoptotic cells at 5 nM incubated for 48 hrs by Annexin V-APC-A/7-AAD-A staining based flow cytometry (reference value: 1.22 %); type: functional

| Structure (SMILES) | Activity (SK-OV-3 [1]) [%] | Activity (SK-OV-3 [2]) [%] |
| --- | --- | --- |
| COc1ccc(N(C)c2nc(Cl)nc3ccn(C)c23)cc1 | 3.86 |  |
| COc1ccc2c(c1)NC(=O)CN2c1nc(Cl)nc2ccsc12 |  | 4.63 |
